The values below come from patent US12303474B2, “S-enantiomerically enriched compositions of beta blockers for treating amyotrophic lateral sclerosis” (priority 2013, dated 2025).

Experiment [1] deals with G93A SOD1 B6SJL hybrid (G93A) model. Description: Body weight and body composition (lean mass, fat mass; NMR scans) in G93A SOD1 transgenic mice. In kind it is in vivo. As to conditions: for Average Δ fat mass / Average Δ lean mass / Average Δ body weight: per day alive after disease onset. From the text:
(§1) Transgenic mice over-expressing a high copy number (25 copies) of mutated human SOD1 gene with a G93A point mutation, i.e., B6SJL-TgN [SOD1-G93A]1 Gur (G1H-G93A transgenic mice, JR2726; Hemizygote) (Gurney M E, et al., Science, 264, 1772-1775, 1994) (“G93A SOD1 B6SJL hybrid (G93A) model”), were used.
[…] […] There were 16 mice in the S-oxprenolol group.
The primary endpoint was survival, humanely defined as the ability of the animal to right itself in 30 seconds after being laid on its side. Secondary endpoints were body weight, body composition, spontaneous activity and food intake. Body weight of the animals was assessed weekly until onset of disease. Additionally, body composition (fat mass and lean body mass) was assessed using NMR scans (EchoMRI-100, Echo Medical Systems, Houston, USA) every 4 days. After onset of disease, body weight and body composition were assessed every two days until the end of the study. All personal handling the animals was strictly blinded to the randomized treatment allocation.
To study the effect of S-oxprenolol on body weight, body weight was monitored over time.
To study the effect of the test compounds on lean body mass, lean mass was determined at the end of the study.
To study the effect of the test compounds on fat mass, the fat mass were determined at the end of the study.
To study the effect of S-oxprenolol on body weight, body weight was monitored over time. […] The number of all mice in the population is indicated as “n” in at the bottom of FIGS. 20A-20C.
To study the effect of the test compounds on lean body mass, lean mass was determined at the end of the study. […] The number of all mice in the population is indicated as “n” in at the bottom of FIGS. 20D-20F.
To study the effect of the test compounds on fat mass, the fat mass were determined at the end of the study. […] The number of all mice in the population is indicated as “n” in at the bottom of FIGS. 20G-20I.

Experiment [2] has the same test system. As to conditions: for Heart / gastrocnemius: end of study. The method, then: as §1
To study the effect of the test compounds on skeletal muscle atrophy, the skeletal muscle mass were determined at the end of the study.
The number of all mice in the population is indicated as “n” in at the bottom of FIGS. 21A-21C.
The number of all mice in the population is indicated as “n” in at the bottom of FIGS. 20D-20F.
The number of all mice in the population is indicated as “n” in at the bottom of FIGS. 21G-21I.

For experiment [3] the test system is unchanged.
Description: To study the effect of S-oxprenolol on survival, survival was monitored over time.
For experiment [4] the test system is unchanged. The experiment is described as follows: Disease progression score (JAX SOP) in G93A SOD1 transgenic mice.
Description: The disease progression score is based on the JAX SOP (Ludolph A C, Bendotti C, Blaugrund E, Hengerer B, Loffler J P, Martin J, Meininger V, Meyer T, Moussaoui S, Robberecht W, Scott S, Silani V, Van Den Berg L H (ENMC Group For The Establishment Of Guidelines For The Conduct Of Preclinical And Proof Of Concept Studies In ALS/MND Models). 2007, which is incorporated by reference).

Like-named read-outs stand apart in the source and are kept apart here.
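For HR survival (FIG. 14) in this document: dosing began after ALS onset in G93A SOD1 mice, with survival as the endpoint, defined humanely as the animal failing to regain upright posture within 30 s when placed sideways.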
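For HR survival (FIG. 15) in this document: dosing began after ALS onset in G93A SOD1 mice, with survival as the endpoint, defined humanely as the animal failing to regain upright posture within 30 s when placed sideways.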
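For HR survival (FIG. 16) in this document: dosing began after ALS onset in G93A SOD1 mice, with survival as the endpoint, defined humanely as the animal failing to regain upright posture within 30 s when placed sideways.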
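For Median survival after onset of ALS symptoms in this document: dosing began after ALS onset in G93A SOD1 mice, with survival as the endpoint, defined humanely as the animal failing to regain upright posture within 30 s when placed sideways.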

Consider `C=CCOc1ccccc1OCC(O)CNC(C)C` (racemic) [oxprenolol, 1-[2-(allyloxy)phenoxy]-3-(isopropylamino)propan-2-ol], for which, in experiment [1] (all mice, 20 mg/kg/d), the Δ body weight was -5.59 ± 0.48 g, the Δ fat mass is -1.49 ± 0.12 g, the Δ lean mass was -4.67 ± 0.42 g and the “Average Δ fat mass” value is -33.1 ± 2.6 mg/day. The “Average Δ lean mass” value in experiment [1] (all mice, 20 mg/kg/d) was -102.0 ± 10.7 mg/day. Besides, in experiment [1] (female mice, 20 mg/kg/d), the Δ body weight was -5.27 ± 0.61 g, the Δ fat mass is -1.64 ± 0.21 g, the Δ lean mass was -3.76 ± 0.42 g and the “Average Δ body weight” value was -122.5 ± 14.7 mg/day. Further, in experiment [1] (female mice, 20 mg/kg/d), the “Average Δ fat mass” value is -37.5 ± 3.7 mg/day and the “Average Δ lean mass” value was -85.8 ± 11.6 mg/day. Further, in experiment [1] (male mice, 20 mg/kg/d), the Δ body weight is -5.94 ± 0.77 g, the Δ fat mass was -1.33 ± 0.13 g, the Δ lean mass is -5.64 ± 0.68 g and the “Average Δ body weight” value is -124.8 ± 20.7 mg/day. Moreover, in experiment [1] (male mice, 20 mg/kg/d), the “Average Δ fat mass” value was -28.3 ± 3.1 mg/day and the “Average Δ lean mass” value was -119.4 ± 17.7 mg/day. Further, in experiment [2] (all mice, 20 mg/kg/d), the “BAT (brown adipose tissue)” value turned out to be 40.6 ± 2.8 mg, the “EDL (extensor digitorum longus)” value was determined as 7.24 ± 0.41 mg, the soleus is recorded as 4.99 ± 0.36 mg and the Heart came out at 100.2 ± 3.2 mg. In experiment [2] (all mice, 20 mg/kg/d), this molecule showed a gastrocnemius of 52.2 ± 2.3 mg. In experiment [2] (female mice, 20 mg/kg/d), the “BAT (brown adipose tissue)” value came to 35.2 ± 4.1 mg, the “EDL (extensor digitorum longus)” value stood at 6.97 ± 0.36 mg, the soleus was determined as 4.76 ± 0.52 mg and the Heart is 89.5 ± 2.4 mg. The molecule further displayed a gastrocnemius in experiment [2] (female mice, 20 mg/kg/d) of 49.5 ± 2.1 mg. In addition, in experiment [2] (male mice, 20 mg/kg/d), the “BAT (brown adipose tissue)” value worked out at 45.7 ± 3.6 mg, the “EDL (extensor digitorum longus)” value was 7.49 ± 0.72 mg, the soleus is listed as 5.21 ± 0.51 mg and the Heart worked out at 110.2 ± 2.9 mg. In experiment [2] (male mice, 20 mg/kg/d), this molecule displayed a gastrocnemius of 54.7 ± 3.9 mg. Also, in experiment [3] (all mice, 20 mg/kg/day vs. placebo), the “HR survival (FIG. 14)” value is 0.66. Moreover, in experiment [3] (female mice, 20 mg/kg/day vs. placebo), the “HR survival (FIG. 16)” value turned out to be 1.03. In experiment [3] (male mice, 20 mg/kg/day vs. placebo), the “HR survival (FIG. 15)” value was found to be 0.38. Also, in experiment [4] (20 mg/kg/day vs. placebo), the “HR Progression from score 1 to score 2 (FIG. 17)” value is on record as 0.60, the “HR Progression from score 1 to score 3 (FIG. 19)” value amounted to 0.60 and the “HR Progression from score 2 to score 3 (FIG. 18)” value is 0.77.

As to `CC(C)NCC(O)COc1cccc2[nH]ccc12` (stereo not drawn) [S-pindolol], the “Median survival after onset of ALS symptoms” value in experiment [3] (3 mg/kg/day, placebo 28 days) is 31 days.

With `Nc1nc2ccc(OC(F)(F)F)cc2s1` [rilutek], in experiment [1] (all mice, 30 mg/kg/d), the Δ body weight is -5.10 ± 0.35 g, the Δ fat mass was -1.91 ± 0.15 g, the Δ lean mass was -3.71 ± 0.27 g and the “Average Δ body weight” value was -121.6 ± 15.2 mg/day. Further, in experiment [1] (all mice, 30 mg/kg/d), the “Average Δ fat mass” value is -50.1 ± 6.1 mg/day and the “Average Δ lean mass” value was -92.31 ± 15.84 mg/day. Besides, in experiment [1] (female mice, 30 mg/kg/d), the Δ body weight was -4.49 ± 0.46 g, the Δ fat mass was -1.76 ± 0.21 g, the Δ lean mass was -3.31 ± 0.37 g and the “Average Δ body weight” value was -122.9 ± 25.7 mg/day. Besides, in experiment [1] (female mice, 30 mg/kg/d), the “Average Δ fat mass” value was -42.2 ± 6.1 mg/day and the “Average Δ lean mass” value is -96.9 ± 24.2 mg/day. Also, in experiment [1] (male mice, 30 mg/kg/d), the Δ body weight is -5.91 ± 0.43 g, the Δ fat mass was -2.09 ± 0.22 g, the Δ lean mass was -4.19 ± 0.38 g and the “Average Δ body weight” value is -120.4 ± 17.9 mg/day. Also, in experiment [1] (male mice, 30 mg/kg/d), the “Average Δ fat mass” value was -57.5 ± 11.3 mg/day and the “Average Δ lean mass” value is -87.4 ± 21.1 mg/day. Besides, in experiment [2] (all mice, 30 mg/kg/d), the “EDL (extensor digitorum longus)” value worked out at 6.71 ± 0.32 mg, the soleus was 5.47 ± 0.39 mg, the Heart came to 103.5 ± 2.8 mg and the gastrocnemius is listed as 55.2 ± 3.0 mg. Also, in experiment [2] (female mice, 30 mg/kg/d), the “EDL (extensor digitorum longus)” value turned out to be 6.28 ± 039 mg, the soleus stood at 5.26 ± 0.48 mg, the Heart was determined as 91.4 ± 2.3 mg and the gastrocnemius turned out to be 54.1 ± 3.8 mg. For the same molecule, in experiment [2] (male mice, 30 mg/kg/d), the “EDL (extensor digitorum longus)” value worked out at 7.20 ± 0.51 mg, the soleus amounted to 5.72 ± 0.64 mg, the Heart worked out at 115.6 ± 2.4 mg and the gastrocnemius is 58.3 ± 4.9 mg. In experiment [4] (30 mg/kg/day vs. placebo), the “HR Progression from score 1 to score 2 (FIG. 17)” value is reported as 0.82, the “HR Progression from score 1 to score 3 (FIG. 19)” value was found to be 0.76 and the “HR Progression from score 2 to score 3 (FIG. 18)” value is listed as 0.68.
